# Data reported in ChEMBL document CHEMBL3352449, “Synthesis and biological evaluation of 1α,25-dihydroxyvitamin D3 analogues with aromatic side chains attached at C-17” (Eur J Med Chem, 2014).
# The source made the active and inactive calls. No cut-off for these calls is given here.
# Key:
# [1] = target: T1, Vitamin D3 receptor (Bos taurus) (UniProt Q28037); experiment: Displacement of [3H]-1alpha,25-dihydroxyvitamin D3 from bovine thymus VDR measured after overnight incubation relative to 1alpha,25-dihydroxyvitamin D3
# T1 sequence (whole entry): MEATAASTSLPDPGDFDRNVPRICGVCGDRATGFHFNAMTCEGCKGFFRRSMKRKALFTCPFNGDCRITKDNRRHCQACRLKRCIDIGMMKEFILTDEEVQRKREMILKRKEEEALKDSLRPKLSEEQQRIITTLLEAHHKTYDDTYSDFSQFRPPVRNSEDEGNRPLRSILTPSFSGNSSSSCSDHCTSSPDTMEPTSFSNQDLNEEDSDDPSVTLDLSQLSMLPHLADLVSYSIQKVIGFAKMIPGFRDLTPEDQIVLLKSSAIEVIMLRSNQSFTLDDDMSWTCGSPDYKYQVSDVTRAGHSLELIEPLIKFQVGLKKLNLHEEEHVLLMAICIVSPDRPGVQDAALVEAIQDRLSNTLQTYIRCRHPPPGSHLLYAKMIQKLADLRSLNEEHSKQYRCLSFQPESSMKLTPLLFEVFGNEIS
# MCF7 = experiment: Antiproliferative activity against human MCF7 cells assessed as inhibition of proliferation after 72 hrs by MTT assay; assay type: functional, cell-based; settings: MCF7, 72 h
# HL-60 = experiment: Induction of cell differentiation in human HL60 cells assessed as maturing morphological changes at 30 to 1000 nM after 48 hrs by Wright's-Giemsa staining-based forty microscopic view assay; assay type: functional
Ratio [1],IC50 (MCF7) [µM],SMILES,Activity (HL-60)
0.01,–,C=C1CC[C@H](O)C/C1=C/C=C1\CCC[C@]2(C)[C@@H]([C@H](C)CCCC(C)(C)O)CC[C@@H]12,–
0.015,7.56,C=C1/C(=C\C=C2/CCC[C@]3(C)C(c4cccc(CCCC(C)(C)O)c4)=CC[C@@H]23)C[C@@H](O)C[C@@H]1O,Active
–,–,C=C1/C(=C\C=C2/CCC[C@]3(C)[C@@H]([C@H](C)CCCC(C)(C)O)CC[C@@H]23)C[C@@H](O)C[C@@H]1O,Active
0.01,7.08,C=C1/C(=C\C=C2/CCC[C@]3(C)C(c4ccccc4CCCC(C)(C)O)=CC[C@@H]23)C[C@@H](O)C[C@@H]1O,Active
